Consider 17 substances from patent EP0970121B1, “PEPTIDE FRAGMENTS OF MYELIN BASIC PROTEIN, THEIR PHARMACEUTICAL COMPOSITIONS AND THEIR USE IN TREATING MULTIPLE SCLEROSIS” (The Governors of the University of Alberta, priority 1997, dated 1998).

Data set [1] has as its system anti-MBP purified from CSF of MS patients. Put plainly: In vitro neutralization of purified anti-MBP (liquid phase assay, then solid phase radioimmunoassay). Type of data set: binding, human. Also noted: key to REACTIVITY WITH ANTI-MBP: + +: complete neutralization; +: partial neutralization; -: insignificant reactivity. As to conditions: for REACTIVITY WITH ANTI-MBP: purified anti-MBP, peptides 0-10.000 ng, h-MBP 0-1000 ng, 1.5 hours incubation; for neutralization of purified anti-MBP: pooled anti-MBP from 10 different MS patients, peptides up to 10.000 ng, MBP and negative antigen controls up to 1000 ng. How it is done: (§1) Constant amounts of anti-MBP (15 radioactivity binding units corresponding to 100 for scale expansion purposes = %0) were incubated with increasing amounts of h-MBP (0-1000 ng) or individual peptides of MBP (0-10.000 ng) in a liquid phase assay and after 1.5 hours incubation, free anti-MBP levels were determined in all mixtures. Anti-MBP isolated from 7 individual MS patients or pooled anti-MBP from 10 different MS patients were used in neutralization experiments. Calf thymus histone and human serum albumin were used as negative antigen controls (range: 10-1000 ng). One monoclonal antibody (MAb) to peptide MBP64-78 and a polyclonal rabbit antiserum to peptide MBP1-8 were used as positive antibody controls (Groome, N., Harland, J., and Dawkes, A., Neurochem Int 7:309-317, 1985, Barry, R., Payton. M., and Groome, N., Neurochem Int 2:291-300. 1991). Another mouse monoclonal antibody to epitope 45-50 was used as negative antibody control.
Anti-MBP levels were determined by a solid phase radioimmunoassay with human MBP (Warren, K.G. and Catz, I., Ann Neurol 209:20-25, 1986; Warren, K.G. and Catz, I., Ann Neurol 21:183-187, 1987; and Warren, K.G. and Catz, I., J Neurol Sci 91:143-151. 1989). Free anti-MBP levels were measured in all fractions from affinity chromatography and in all neutralization mixtures. All individual samples were run in quadruplicate using the same iodinated material in order to minimize between-assay variability.

In data set [2] the test system is MS patients. The data set is described as follows: Monitoring for adverse effects after peptide administration. It counts as in vivo, human. As for the experimental part:
After determining that peptide MBP75-95 neutralized F anti-MBP in vivo for periods in excess of 7 days, it was elected to repeatedly inoculate 10 mg MBP75-95 into the spinal fluid at weekly intervals for 10 weeks. This experiment was conducted, in 3 different patients with chronic progressive MS who have not participated in the single peptide injection project and volunteered for this study. F and B anti-MBP were determined 1-2 weeks prior to the first inoculation, prior to and 30 minutes following each of the 10 injections and again 1 month after the last injection. Cell counts, total protein, glucose, IgG and albumin levels were determined in all CSFs obtained before each of the 10 injections. Prior to the first and after the last injection blood was obtained and analyzed for electrolytes, creatinine, cardiac and liver enzymes and hematology panel.
Blood was obtained before injection as well as 16 and 30 days later and analyzed for electrolytes, creatinine, cardiac and liver enzymes and hematology panel. Spinal fluid was monitored for cell counts, total protein, glucose, IgG and albumin levels.

Data set [3] relates to polyclonal rabbit antiserum to peptide MBP1-8. The data set is described as follows: Positive antibody control of the neutralization assay. It counts as binding. How it is done:
as §1

Data set [4] relates to CSF anti-MBP. Put plainly: Intrathecal peptide administration, CSF anti-MBP by radioimmunoassay. Type of data set: in vivo, human. As for the experimental part: Anti-MBP levels were determined by a solid phase radioimmunoassay with human MBP coated on Immulon microtiter wells. Immulon microtiter wells were coated with 100 µl of 10 µg/ml of MBP (1 µg/well) and incubated overnight at 37°C. After quenching with bovine serum albumin (BSA) and three water washes, the wells were stored at room temperature. Samples of 100 µl of CSF or tissue extracts diluted to 0.010 gm of IgG/l (with 0.01 M Barbitol Buffered Saline (BBS) pH 6.9-7.1. 0.5% BSA and 0.05% Tween 20) were incubated in MBP-coated wells for 1-2 hours at room temperature. After 5 buffer washes (with 0.01 M BBS, 0.5 BSA and 0.05% Tween 20), wells were incubated with goat anti-rabbit IgG-Fc specific (in 0.01 M BBS, 0.05% Tween 20, 0.5% BSA) for 1 hour at room temperature and then rinsed as above. Finally, ^125I-protein A (or ^125 I-protein G) was added and incubated for 1 hour at room temperature. When ^125I-protein G was used as a tracer, ovalbumin replaced BSA in assay buffer and for quenching. After three final water washes wells were individually counted. Results are expressed in radioactivity defined as: (counts of sample - counts of blank) ÷ (counts of total radioactivity - counts of blank). All samples are run in 10 replicate and counting time is 10 minutes in order to collect > 10,000 counts for any positive sample.
Prior to being assayed all CSF and/or tissue samples were diluted to a final IgG concentration of 0.010 g/l. F anti-MBP was detected directly in CSF or tissue extract while B levels of antibody were determined following acid hydrolysis of immune complexes with glycine HCl buffer pH 2.2. Non-specific binding was performed for each sample in uncoated wells. For epitope localization, synthetic peptides were firstly reacted with purified antibody in a liquid phase competitive assay and then anti-MBP was determined by radioimmunoassay in all resulting supernatants. Results of the combined competitive binding assay and radioimmunoassay were expressed as percent inhibition of synthetic peptide defined as 100 - radioactivity units. Samples were done in 10 replicates and counted for 10 minutes each in a LKB1275 Minigamma counter. […]
A Phase 1 experiment to determine the effect of synthetic peptide MBP75-95 on F and B titers of CSF anti-MBP was conducted. […] 14 patients volunteered for this study: eight patients were selected on the basis of their initial titre of F CSF anti-MBP (above 8 radioactivity units) (Table 2) to receive one intrathecal injection of either peptide MBP75-95 which bound anti-MBP in vitro or a non-binding control peptide MBP35-58 (Warren and Catz, 1993b). […] Cell counts, total protein, glucose, IgG and albumin levels were determined in all CSF samples obtained. F and B anti-MBP levels were determined by radioimmunoassay, as described above. […]

Data set [5] concerns F and B anti-MBP purified by affinity chromatography from CSF and MS brain tissue. The data set is described as follows: Competitive inhibition assay with decapeptides (MBP epitope localization). The note with it: purified F and B anti-MBP from MS brain tissue (Fig. 10); percent inhibition = 100 - radioactivity units. Type of data set: binding, human. As for the experimental part: Prior to being assayed all CSF and/or tissue samples were diluted to a final IgG concentration of 0.010 g/l. F anti-MBP was detected directly in CSF or tissue extract while B levels of antibody were determined following acid hydrolysis of immune complexes with glycine HCl buffer pH 2.2. Non-specific binding was performed for each sample in uncoated wells. For epitope localization, synthetic peptides were firstly reacted with purified antibody in a liquid phase competitive assay and then anti-MBP was determined by radioimmunoassay in all resulting supernatants. Results of the combined competitive binding assay and radioimmunoassay were expressed as percent inhibition of synthetic peptide defined as 100 - radioactivity units. Samples were done in 10 replicates and counted for 10 minutes each in a LKB1275 Minigamma counter. A pool of tissue-purified anti-MBP was used at 5 pre-established dilutions as positive controls. Pooled CSF from patients with non-neurological diseases was used as negative controls. Within assay reproducibility was between 3 and 5% and between assay variation was less than 7 %.
The peptide(s) producing maximum inhibition were considered to be most highly associated with the antibody binding site.

Data set [6] can be described thus: Solubility in normal saline.

“Also recorded” adds a separate entry of the source. Where no end group is shown, it is not given here.

With “18-32: synthetic peptide of human MBP sequence 18-32 (NSETNRGESEKKRNL; UniProt P02686 18-32, looked up, fragment)”, the “REACTIVITY WITH ANTI-MBP” value in data set [1] is reported as “-”.

Turning to “26 - 40: synthetic peptide of human MBP sequence 26-40 (SEKKRNLGELSRTTS; UniProt P02686 26-40, looked up, fragment)”, the “REACTIVITY WITH ANTI-MBP” value in data set [1] is “-”.

As to “117 - 129: synthetic peptide of human MBP sequence 117-129 (LQTIQEDSAATSE; UniProt P02686 117-129, looked up, fragment)”, the “REACTIVITY WITH ANTI-MBP” value in data set [1] is recorded as “-”.

Consider “141 - 155: synthetic peptide of human MBP sequence 141-155 (SQRHGSKYLATASTM; UniProt P02686 141-155, looked up, fragment)”, for which, in data set [1], the “REACTIVITY WITH ANTI-MBP” value was “-”.

Take “Cy 4 - 18: synthetic peptide of human MBP sequence 4-18 with cysteine (HAGKRELNAEKASTN; also: added cysteine, end not given here; UniProt P02686 4-18, looked up, fragment)”: in data set [1], the “REACTIVITY WITH ANTI-MBP” value was “-”.

“Cy 11 - 24: synthetic peptide of human MBP sequence 11-24 with cysteine (NAEKASTNSETNRG; also: added cysteine, end not given here; UniProt P02686 11-24, looked up, fragment)”: in data set [1], the “REACTIVITY WITH ANTI-MBP” value is given as “-”.

Take “Cy 51 - 64 Gly: synthetic peptide of human MBP sequence 51-64 with cysteine and Gly (ANQNNGTSSQDTAV; also: added cysteine and glycine, ends not given here; UniProt P02686 51-64, looked up, fragment)”: in data set [1], the “REACTIVITY WITH ANTI-MBP” value is “+”.

Take “Cy 127 - 140: synthetic peptide of human MBP sequence 127-140 with cysteine (TSESLDVMASQKRP; also: added cysteine, end not given here; UniProt P02686 127-140, looked up, fragment)”: the “REACTIVITY WITH ANTI-MBP” value in data set [1] is on record as “-”.

For the substance “Cy 136 - 149: synthetic peptide of human MBP sequence 136-149 with cysteine (SQKRPSQRHGSKYL; also: added cysteine, end not given here; UniProt P02686 136-149, looked up, fragment)”, the “REACTIVITY WITH ANTI-MBP” value in data set [1] is “-”.

Consider HHPARTAHYGSLPQK [MBP61-75], for which, in data set [1], the “neutralization of purified anti-MBP” value was “partially neutralized” and the “REACTIVITY WITH ANTI-MBP” value was “+”.

Consider KSHGRTQDENPVVHFFKNIVT [MBP75-95], for which the adverse effects entry in data set [2] (500 mg intravenously over 30 minutes, patient 8M41) is “No adverse effects were observed”. The “adverse effects / systemic complications” value in data set [2] (repeated intrathecal inoculations, electrolytes, cardiac-liver-kidney function, hematology) was “no adverse complications have occurred”.

Regarding “MBP1-8: synthetic peptide of human MBP sequence 1-8 with cysteine (MGNHAGKR; also: added cysteine, end not given here; UniProt P02686 1-8, looked up, fragment)”, in data set [3], the “inhibition of MAb to peptide MBP 1-8” value is on record as “inhibited”. In addition, the “REACTIVITY WITH ANTI-MBP” value in data set [1] is on record as “-”.

Regarding “MBP35-58: non-binding, control synthetic peptide of human MBP residues 35-58 (LSRTTSEDNEVFGEADANQNNGTS; also: added cysteine, end not given here; UniProt P02686 35-58, looked up, fragment)”, the “REACTIVITY WITH ANTI-MBP” value in data set [1] is listed as “-”. Moreover, the “F and B levels of CSF anti-MBP” value in data set [4] (one intrathecal injection of 1, 2.5, 5 and 10 mg, 24 hour experiment) is reported as “remained unaffected; also recorded: remained unchanged”. The “F anti-MBP in CSF” value in data set [4] (one intrathecal injection, 5 mg) is on record as “remained elevated at baseline level”; in data set [4] (one intrathecal injection, 10 mg) it was “persistently elevated”. Moreover, in data set [4] (one intrathecal injection, increasing amounts 1, 2.5, 5 and 10 mg), the “CSF F anti-MBP over increasing doses” value is listed as “did not react”.

For the substance “MBP51 -60: decapeptide of human MBP residues 51-60, negative control (ANQNNGTSSQ; UniProt P02686 51-60, looked up, fragment)”, the “percent inhibition of both F and B anti-MBP” value in data set [5] is recorded as 0-10%.

In the case of “MBP 111 -120: decapeptide of human MBP residues 111-120, negative control (PSESDELQTI; UniProt P02686 111-120, looked up, fragment)”, the “percent inhibition of both F and B anti-MBP” value in data set [5] is 0-10%.

With “Thr Gln Asp Glu Asn Pro Val Val His Phe Phe Lys Asn Ile Val Thr Pro Arg (TQDENPVVHFFKNIVTPR; printed: Thr Gln Asp Glu Asn Pro Val Val His Phe Phe Lys Asn Ile Val Thr Pro Arg) [MBP80-97]”, in data set [1] (anti-MBP of individual patients), the “neutralization of anti-MBP purified from 7 individual MS patients” value is listed as “completely neutralized”. Moreover, in data set [1], the “neutralization of purified anti-MBP” value is reported as “completely neutralized” and the “REACTIVITY WITH ANTI-MBP” value is “+ +”. Besides, the “times less effective on a molar basis than intact MBP at causing inhibition” value in data set [1] (relative to intact MBP) is reported as “approximately 100 times”.

As to “VVHFFKNIVT [MBP86-95, Val Val His Phe Phe Lys Asn Ile Val Thr]”, the solubility result in data set [6] is reported as “very low solubility”.
